# Measured values from PubChem BioAssay AID1996.
# Settings: buffer; pH 7.4; 200.0 µM
row,solubility kinetic,SMILES
1,1.6 µg/mL,CCn1c(/C=C/c2ccc(F)cc2)nc2ccccc2c1=O
2,3.7 µg/mL,CCc1ccccc1NC(=O)c1ccc(OCc2c(C)noc2C)cc1
3,41.7 µg/mL,COc1ccc(C(=O)Cn2cnc3ccccc3c2=O)c(OC)c1
4,29.5 µg/mL,O=C(CSCc1ccccc1Br)Nc1ccccc1
5,> 46.1 µg/mL,COC(=O)c1ccc(C(=O)OC)c(NC(=O)/C=C/C(=O)O)c1
6,39.4 µg/mL,CC(C)CC(=O)Nc1ccc(C(=O)CN2CCC(C)CC2)cc1
7,33.9 µg/mL,COc1ccc(NC(=O)C2CCCO2)c(OC)c1 (centres undefined)
8,> 44 µg/mL,CC(C)(C)S(=O)(=O)c1cnc(-c2cnccn2)nc1N
9,> 46.5 µg/mL,O=C(CCN1C(=O)c2ccccc2C1=O)Nc1cccc(O)c1
10,6.8 µg/mL,Cc1ccc(NC(=O)CN(C)C(=O)/C=C/c2ccc3c(c2)OCO3)cc1
11,5.7 µg/mL,C=CCOc1c(Cl)cc(C(=S)N2CCCC2)cc1OCC
12,> 55.6 µg/mL,O=C(O)/C=C/C(=O)Nc1ccc(Oc2ncnc3cc(Cl)ccc23)nc1
13,20.1 µg/mL,COc1ccc(COc2cccnc2N)cc1
14,> 42.6 µg/mL,Nc1cc2c(cc1[N+](=O)[O-])OCCOCCOCCO2
15,> 47.9 µg/mL,CCn1c(SCC(=O)Nc2ccc(C)cc2)nc(O)cc1=O
16,> 37.2 µg/mL,COC(=O)N1CCN(CCc2ccccc2)CC1
17,> 41.3 µg/mL,COC(=O)c1ccc(S(=O)(=O)N2CCOCC2)o1
18,> 66.2 µg/mL,CN(C)C(CNC(=O)c1cc(S(=O)(=O)N2CCOCC2)ccc1F)c1cccs1 (centres undefined)
19,< 0.4 µg/mL,CCCC(=O)NC(c1ccc(C(C)C)cc1)c1ccc2cccnc2c1O (centres undefined)
20,> 50.6 µg/mL,Cc1ccc(C(=O)Nc2scc(-c3ccccc3)c2C(=O)O)cc1
21,1.7 µg/mL,CC(=O)Oc1ccc(-c2nc3cc(Cl)ccc3c(=O)o2)cc1
22,> 36.6 µg/mL,CC(=O)Nc1ccc(N/C=C2/CCCC2=O)cc1
23,1.5 µg/mL,COc1ccc(C(=O)NC(=S)Nc2cccnc2)cc1Cl

row,solubility kinetic,SMILES
1,> 53.5 µg/mL,CCC(=O)NCCc1nc2cc(NC(=O)c3cccs3)ccc2n1C
2,> 45.5 µg/mL,O=C1c2ccc([N+](=O)[O-])cc2C(=O)N1c1ccc(Cl)cn1
3,1.7 µg/mL,CC1=CC(=C(C#N)C#N)C=C(C)N1CCC(C)C
4,1.2 µg/mL,CN1c2ccc([N+](=O)[O-])cc2N(C)C1(C)c1ccccc1 (centres undefined)
5,5.6 µg/mL,CN(CC(=O)Nc1ccc(F)cc1)C(=O)Cn1cnc2ccc([N+](=O)[O-])cc2c1=O
6,> 40.1 µg/mL,Cc1nc2ccc(NC(=O)c3ccco3)cc2nc1C
7,< 0.4 µg/mL,O=C(NC1CCN(S(=O)(=O)c2ccccc2)CC1)c1ccccc1
8,1.3 µg/mL,COc1ccc(Cl)cc1S(=O)(=O)Nc1ccc(Cl)cn1
9,5.2 µg/mL,COC(=O)c1ccc(C2NC(=O)c3ccccc3O2)cc1 (centres undefined)
10,16.5 µg/mL,COc1ccc(CNC(=O)CCSCc2ccc(C)cc2)cc1
11,> 49.6 µg/mL,CCN(CC)S(=O)(=O)c1nnc(NC(=O)c2ccco2)s1
12,> 47.5 µg/mL,COc1ccc(NC(=O)CCc2ccc(OC)c(OC)c2)cn1
13,19.5 µg/mL,NC(=O)c1ccccc1OCc1nc2ccccc2s1
14,0.3 µg/mL,CS(=O)(=O)c1ccc2nc(NC(=O)c3ccc(N4C(=O)CCC4=O)cc3)sc2c1
15,37.4 µg/mL,O=C(COC(=O)CNC(=O)c1ccccc1Cl)NC1CC1
16,12.8 µg/mL,COc1ccc(C2=NOC(CNC(=S)N3CCOCC3)C2)cc1 (centres undefined)
17,26.8 µg/mL,O=C(CN1CCCCC1)Nc1ccccc1Cl
18,2.6 µg/mL,O=C(CSc1ncnc2nc[nH]c12)c1ccc([N+](=O)[O-])cc1
19,> 44.4 µg/mL,NS(=O)(=O)c1cc2c(cc1Cl)NC=NS2(=O)=O
20,3.3 µg/mL,O=c1c2[nH]c3ccc(F)cc3c2ncn1Cc1ccncc1
21,> 51.2 µg/mL,C=CCNc1nc(S(=O)Cc2ccc(C)cc2)nc2c1CCCC2 (centres undefined)
22,> 41.5 µg/mL,Cc1nc2ccccc2cc1C(=O)NCc1ccccc1
23,3.2 µg/mL,O=c1c2ccccc2ncn1CCOc1ccccc1[N+](=O)[O-]

row,solubility kinetic,SMILES
1,> 49.1 µg/mL,CCOc1ccc(C2NC(=O)Cc3cc(OC)c(OC)cc32)cc1 (centres undefined)
2,6.1 µg/mL,O=C(Cc1c(Cl)cccc1Cl)Nc1ccncc1Cl
3,> 40.9 µg/mL,COc1cccc(NC(=S)NCc2ccccc2)c1
4,< 0.3 µg/mL,CC(=O)c1sc(NC(=O)c2ccccc2)nc1-c1ccccc1
5,> 46.7 µg/mL,COc1cccc(C(=O)Nc2ccc3c(c2)n(C)c(=O)n3C)c1
6,> 46.6 µg/mL,COc1ccc2oc(C(=O)NC(C)c3ccccn3)c(C)c2c1 (centres undefined)
7,> 43.4 µg/mL,COc1cc(NC(=O)CC(C)n2ccnc2)cc(OC)c1 (centres undefined)
8,> 43.7 µg/mL,CCC1=C([N+](=O)[O-])C(c2ccc3c(c2)OCO3)NC(=O)N1 (centres undefined)
9,> 41.3 µg/mL,CN(C)CCNC(=O)C(=O)C1C(=O)Nc2ccccc21 (centres undefined)
10,> 52.3 µg/mL,CCOC(=O)C(=CNc1ccc(N2CCOCC2)cc1)C(=O)OCC
11,43.2 µg/mL,CN(c1ccccc1)S(=O)(=O)c1ccc2c(c1)OCCO2
12,> 56.2 µg/mL,CCOc1ccc(S(=O)(=O)N=C(c2ccccc2)N2CCOCC2)cc1
13,0.3 µg/mL,CCN1/C(=C2\OC(=S)N(C)C2=O)C=Cc2ccccc21
14,8.5 µg/mL,COc1ccc(C2CC(=O)C=C(NCc3ccc4c(c3)OCO4)C2)cc1 (centres undefined)
15,> 42.4 µg/mL,COc1cccc(NC(=O)N2CCc3ccccc3C2)c1
16,> 48.2 µg/mL,O=C(COC(=O)C1CC2CCCC(C1)C2=O)NC1CCCCC1 (centres undefined)
17,> 47.2 µg/mL,c1ccc(Cn2c(NCc3ccncc3)nc3ccccc32)cc1
18,1 µg/mL,O=C(Nc1ccccc1)Nc1cccc(-c2cn3cccnc3n2)c1
19,> 61 µg/mL,COc1ccccc1OCC(O)CN1CCN(C(=O)c2ccccc2)CC1.Cl (centres undefined)
20,1.2 µg/mL,Cc1ccc(C)n1Cc1ccccc1Cl
21,33.8 µg/mL,O=C(CCSCc1ccccc1)Nc1ccc2c(c1)OCCO2
22,> 49.9 µg/mL,CS(=O)(=O)N(CC(=O)N1CCOCC1)c1ccc(Cl)cc1
23,26.4 µg/mL,O=C(Nc1cc([N+](=O)[O-])ccc1Cl)c1cccnc1

row,solubility kinetic,SMILES
1,7.4 µg/mL,Cc1ccc(O)c(CNc2nccs2)c1
2,> 45.6 µg/mL,O=C(Nc1ccccc1)NN(C(=O)CCl)c1ccccc1
3,> 37 µg/mL,O=C(CCC1CCCCC1)NCc1cccnc1
4,14.1 µg/mL,Cc1ncc(CSc2ccc(Cl)cc2)c(CO)c1O
5,> 68 µg/mL,Cc1ccc(C(=O)NCC(=O)Nc2ccc(S(=O)(=O)Nc3cc(C)nc(C)n3)cc2)cc1
6,1.1 µg/mL,COc1ccccc1Sc1nc(-c2ccccc2)ncc1OC
7,5.6 µg/mL,CCOc1ccc(OCCCC(=O)N(C)CC(=O)Nc2ccccc2Br)cc1
8,41.6 µg/mL,O=C(Nc1ccc(NC(=O)C2CC2)cn1)c1ccccc1
9,35.5 µg/mL,Cc1c(C(=O)O)sc2nc(/C=C/c3cccc(O)c3)[nH]c(=O)c12
10,> 53.2 µg/mL,Cc1ccc(Oc2ncccc2NC(=O)CCCC(=O)O)c2c1CCC2
11,> 65.5 µg/mL,CCOC(=O)C1=C(C)NC(C)=C(C(=O)OCC)C1C(=O)OCC(=O)NC1CCCCC1
12,> 42.2 µg/mL,O=c1cc(C(F)(F)F)[nH]c2ccc(C(F)(F)F)cc12
13,> 41.3 µg/mL,COCc1ccc(C(=O)Nc2ccc(C(=O)O)cc2)o1
14,> 45 µg/mL,O=C(O)c1ccccc1Nc1ccc2nonc2c1[N+](=O)[O-]
15,38.8 µg/mL,CC(CNC(=O)c1ccco1)NC(=O)c1ccco1 (centres undefined)
16,6.2 µg/mL,C/C=C/C=C/C(=O)OCC(=O)Nc1ccc(Cl)cc1
17,> 45.6 µg/mL,CC(C)(CC(=O)O)CC(=O)Nc1ccc(Cl)c(Cl)c1
18,26.8 µg/mL,CC(C)CCN1CCC(N)=NC1=O
19,46.9 µg/mL,CCCCN(C(=O)c1cnccn1)c1c(N)n(CCC)c(=O)[nH]c1=O
20,28.5 µg/mL,CC(C)CCNC(=O)C(=O)Nc1cc2c3c(c1)CC(=O)N3CCC2
21,> 40.2 µg/mL,COc1ccc(OCCn2cnc3ccccc32)cc1
22,0.5 µg/mL,Cc1nc(SCC(=O)NC2CCCC2)c2c(C)c(C)sc2n1
23,0.8 µg/mL,Cc1ccc(C)c(CNC(=O)Nc2ccccc2)c1

row,solubility kinetic,SMILES
1,> 51.4 µg/mL,COc1ccccc1N1CCN(Cc2cc3c(cc2O)OCO3)CC1
2,0.4 µg/mL,COc1ccc(C(=O)NCCNc2nc3c(C)cccc3cc2C#N)cc1
3,44 µg/mL,CCCCC(=O)Nc1ccc(C2C(=O)c3ccccc3C2=O)cc1
4,> 35.3 µg/mL,OCC1(CO)COC(CCc2ccccc2)=N1
5,2.7 µg/mL,Cc1ccc(Cn2ccsc2=NC(=O)COC(=O)c2ccc(O)cc2O)cc1
6,31.8 µg/mL,Cc1cccc(NC(=O)c2ccco2)c1C
7,0.5 µg/mL,CC(C)CNC(=O)c1cc(-c2ccc3c(c2)OCO3)on1
8,> 58.9 µg/mL,CCCn1c(=O)c2[nH]c(-c3ccc(S(=O)(=O)O)cc3)nc2n(CCC)c1=O
9,28.9 µg/mL,COC(=O)c1cc(C(=O)OC)n(Cc2ccc(C)cc2)c1C
10,> 48.8 µg/mL,Cc1c(C(=O)O)[nH]c2c1C(=O)CC(c1ccc(C(C)(C)C)cc1)C2 (centres undefined)
11,41.6 µg/mL,O=C(COC(=O)CCSc1ccccc1)Nc1ccccc1
12,33.9 µg/mL,O=C(NCCc1ccccc1)C1(S(=O)(=O)c2ccc(Cl)cc2)CC1
13,20.2 µg/mL,CC(=O)c1cccc(NC(=O)C(CC(C)C)NC(=O)C2CCCCC2)c1 (centres undefined)
14,12.4 µg/mL,O=C(Cc1ccc(Cl)cc1Cl)Nc1ccncc1Cl
15,40.3 µg/mL,COc1ccccc1Oc1ccc2c(c1)C(=O)N(CC1CCCO1)C2=O (centres undefined)
16,33 µg/mL,O=C(c1ccc(Br)o1)N1CC=C(c2ccccc2)CC1
17,> 48.8 µg/mL,COc1ccc(/C=C/C(=O)O)cc1S(=O)(=O)N1CCCCC1
18,> 50.3 µg/mL,O=C(O)c1ccc(C(=O)Nc2cccc3ccccc23)c(C(=O)O)c1
19,> 35.7 µg/mL,CCCOc1nc(C)cc(COC)c1C(N)=O
20,> 34.8 µg/mL,CC(NC(=O)CN1CCCC1)c1ccccc1 (centres undefined)
21,1.9 µg/mL,CC(C)c1onc(C(=O)N2CCN(c3ccccc3)CC2)c1[N+](=O)[O-]
22,7.1 µg/mL,COC(=O)c1sc(=S)n(Cc2ccccc2)c1C
23,> 63.9 µg/mL,Cn1c(=O)c(C(=O)c2ccc(S(C)(=O)=O)c(Cl)c2Cl)c(O)c2ccccc21

row,SMILES,solubility kinetic
1,Cl.FC(F)(F)c1cccc(C2NCc3ccccc3-n3cccc32)c1 (centres undefined),3.9 µg/mL
2,CCCCn1c(C)c(C(=O)OCC)c2c(CN3CCCC3)c(O)ccc21,53.1 µg/mL
3,COc1ccc2[nH]c3c(c2c1)CCNC3C.Cl (centres undefined),30.1 µg/mL
4,Cc1ccc(CC(=O)N2CCN(C)CC2)cc1,> 34.8 µg/mL
